Source: patent US20070128217A1 (priority 2003, published 2007)

Legend:
[1] = test system: antibodies in sera from SARS patients (sera 1a, 1b, 2, 6, 37, 62, London, SARS-yellow, SARS-green); format: binding, human; set-up: Binding of serum 6 to linear peptides of protein X1 of SARS-CoV Urbani / Binding of serum 37 to linear peptides of protein X1 of SARS-CoV Urbani / Binding of serum 6 to looped/cyclic peptide (PEPSCAN-ELISA) / Binding of serum 37 to looped/cyclic peptide (PEPSCAN-ELISA) / Binding of serum 37 to looped/cyclic peptides of protein X1 of SARS-CoV Urbani / Binding of serum 6 to linear peptides of protein X2 / Binding of serum 37 to linear peptides of protein X2 / Binding of serum 37 to looped/cyclic peptides of protein X2 of SARS-CoV Urbani / Binding of serum 6 to linear peptides of protein M of SARS-CoV Urbani / Binding of serum 37 to linear peptides of protein M of SARS-CoV Urbani / Binding of serum 6 to looped/cyclic peptides of protein M of SARS-CoV Urbani / Binding of serum 37 to looped/cyclic peptides of protein M of SARS-CoV Urbani / Binding of serum 6 to linear peptides of protein X3 of SARS-CoV Urbani / Binding of serum 37 to linear peptides of protein X3 of SARS-CoV Urbani / Binding of serum 37 to looped/cyclic peptides of protein X3 of SARS-CoV Urbani / Binding of serum 6 to linear peptides of protein X4 of SARS-CoV Urbani / Binding of serum 37 to linear peptides of protein X4 of SARS-CoV Urbani / Binding of serum 37 to looped/cyclic peptides of protein X4 of SARS-CoV Urbani / Binding of serum 6 to linear peptides of protein X5 of SARS-CoV Urbani / Binding of serum 37 to linear peptides of protein X5 of SARS-CoV Urbani / Binding of serum 37 to looped/cyclic peptides of protein X5 of SARS-CoV Urbani / Binding of serum 6 to linear peptides of protein N of SARS-CoV Urbani / Binding of serum 37 to linear peptides of protein N of SARS-CoV Urbani / Binding of serum 6 to linear peptide (PEPSCAN-ELISA) / Binding of serum 1a to looped/cyclic peptides of protein N of SARS-CoV Urbani / Binding of serum 1b to looped/cyclic peptides of protein N of SARS-CoV Urbani / Binding of serum 2 to looped/cyclic peptides of protein N of SARS-CoV Urbani / Binding of serum 6 to looped/cyclic peptides of protein N of SARS-CoV Urbani / Binding of serum 37 to looped/cyclic peptides of protein N of SARS-CoV Urbani / Binding of serum 62 to looped/cyclic peptides of protein N of SARS-CoV Urbani / Binding of serum London to looped/cyclic peptides of protein N of SARS-CoV Urbani / Binding of serum SARS-green to looped/cyclic peptides of protein N of SARS-CoV Urbani: unit not given here
[2] = test system: control sera (pooled serum of ten healthy LUMC hospital workers; commercial negative donor pooled serum from the Dutch bloodbank); format: binding, human; set-up: Binding of Control serum LUMC to linear peptides / Binding of Control serum Blood-bank to linear peptides / Binding of Control serum LUMC to looped peptides / Binding of Control Serum Blood-Bank to Looped peptides / Binding of Control serum LUMC to linear peptides of the protein M of SARS-CoV Urbani / Binding of Control serum Blood-bank to linear peptides of the protein M of SARS-CoV Urbani / Binding of Control serum LUMC to looped peptides of the protein M of SARS-CoV Urbani / Binding of Control Serum Blood-Bank to Looped peptides of the protein M of SARS-CoV Urbani: unit not given here
[3] = test system: rabbit serum obtained by immunizing a rabbit with the SARS-CoV strain Frankfurt 1; format: binding; set-up: Binding of a rabbit serum to linear peptides / Binding of a rabbit serum to looped peptides / Rabbit serum linear peptides / Rabbit serum looped peptides / Binding of a rabbit serum to linear peptides of protein N of SARS-CoV Urbani (Rabbit serum linear peptides) / Binding of a rabbit serum to looped/cyclic peptides of protein N of SARS-CoV Urbani (Rabbit serum looped peptides): unit not given here

## RYRIGNYKLNTDHAG
[1]
  Binding of serum 1a to linear peptides of protein M of SARS-CoV Urbani: 0.7
  Binding of serum 1a to looped/cyclic peptides of protein M of SARS-CoV Urbani: 0.7
  Binding of serum 1b to linear peptides of protein M of SARS-CoV Urbani: 0.5
  Binding of serum 1b to looped/cyclic peptides of protein M of SARS-CoV Urbani: 0.6
  Binding of serum 2 to linear peptides of protein M of SARS-CoV Urbani: 0.4
  Binding of serum 2 to looped/cyclic peptides of protein M of SARS-CoV Urbani: 0.6
  Binding of serum 6 to linear peptides of protein M of SARS-CoV Urbani: 0.2
  Binding of serum 6 to looped/cyclic peptides of protein M of SARS-CoV Urbani: 0.9
  Binding of serum 37 to linear peptides of protein M of SARS-CoV Urbani: 0.6
  Binding of serum 37 to looped/cyclic peptides of protein M of SARS-CoV Urbani: 0.6
  Binding of serum 62 to linear peptides of protein M of SARS-CoV Urbani: 0.5
  Binding of serum 62 to looped/cyclic peptides of protein M of SARS-CoV Urbani: 0.6
  Binding of serum London to linear peptides of protein M of SARS-CoV Urbani: 0.5
  Binding of serum London to looped/cyclic peptides of protein M of SARS-CoV Urbani: 0.4
  Binding of serum SARS-green to linear peptides of protein M of SARS-CoV Urbani: 0.4
  Binding of serum SARS-green to looped/cyclic peptides of protein M of SARS-CoV Urbani: 0.3
  Binding of serum SARS-yellow to linear peptides of protein M of SARS-CoV Urbani: 0.2
  Binding of serum SARS-yellow to looped/cyclic peptides of protein M of SARS-CoV Urbani: 0.8
[2]
  Binding of Control Serum Blood-Bank to Looped peptides of the protein M of SARS-CoV Urbani: 0.7
  Binding of Control serum Blood-bank to linear peptides of the protein M of SARS-CoV Urbani: 0.7
  Binding of Control serum LUMC to linear peptides of the protein M of SARS-CoV Urbani: 0.5
  Binding of Control serum LUMC to looped peptides of the protein M of SARS-CoV Urbani: 0.7
[3]
  Rabbit serum linear peptides: 0.1
  Rabbit serum looped peptides: 0.2

## CTPNVTINCQDPAGG
[1]
  Binding of serum 1a to linear peptides of protein X5 of SARS-CoV Urbani: 1.0
  Binding of serum 1a to looped/cyclic peptides of protein X5 of SARS-CoV Urbani: 0.6
  Binding of serum 1b to linear peptides of protein X5 of SARS-CoV Urbani: 0.8
  Binding of serum 1b to looped/cyclic peptides of protein X5 of SARS-CoV Urbani: 0.8
  Binding of serum 2 to linear peptides of protein X5 of SARS-CoV Urbani: 0.6
  Binding of serum 2 to looped/cyclic peptides of protein X5 of SARS-CoV Urbani: 0.3
  Binding of serum 6 to linear peptides of protein X5 of SARS-CoV Urbani: 0.6
  Binding of serum 6 to looped/cyclic peptides of protein X5 of SARS-CoV Urbani: 0.3
  Binding of serum 37 to linear peptides of protein X5 of SARS-CoV Urbani: 0.7
  Binding of serum 37 to looped/cyclic peptides of protein X5 of SARS-CoV Urbani: 0.4
  Binding of serum 62 to linear peptides of protein X5 of SARS-CoV Urbani: 0.7
  Binding of serum 62 to looped/cyclic peptides of protein X5 of SARS-CoV Urbani: 0.3
  Binding of serum London to linear peptides of protein X5 of SARS-CoV Urbani: 0.8
  Binding of serum London to looped/cyclic peptides of protein X5 of SARS-CoV Urbani: 0.2
  Binding of serum SARS-green to linear peptides of protein X5 of SARS-CoV Urbani: 0.5
  Binding of serum SARS-green to looped/cyclic peptides of protein X5 of SARS-CoV Urbani: 0.4
  Binding of serum SARS-yellow to linear peptides of protein X5 of SARS-CoV Urbani: 0.0
  Binding of serum SARS-yellow to looped/cyclic peptides of protein X5 of SARS-CoV Urbani: 0.4
[2]
  Binding of Control Serum Blood-Bank to Looped peptides: 0.4
  Binding of Control serum Blood-bank to linear peptides: 0.7
  Binding of Control serum LUMC to linear peptides: 0.3
  Binding of Control serum LUMC to looped peptides: 0.4
[3]
  Rabbit serum linear peptides: 0.4
  Rabbit serum looped peptides: 0.0
